Here are results for 13 compounds from patent publication US9187471B2, “Pyrido [4,3-b] indole and pyrido [3,4-b] indole derivatives and methods of use” (Medivation Technologies, Inc., priority 2010, dated 2015).

Molecules are shown by their SMILES.

Test [1] deals with T1, human recombinant serotonin (5-Hydroxytryptamine) 5-HT6 receptor (Homo sapiens, UniProt P50406).
T1 construct: expressed in transfected cells; host or cells: HeLa
The experiment in a line: Serotonin 5-HT6 radioligand binding ([3H]LSD). As to conditions: compound at 0.1 μM; read-out: Inhibition of ligand binding, Serotonin 5-HT6 (percent inhibition of specific binding). The text has this: Receptor proteins were filtered and washed, the filters were then counted to determine [3H]LSD specifically bound.

Test [2] concerns the target T2, human recombinant histamine H1 receptor (Homo sapiens, UniProt P35367).
T2 construct: expressed in transfected cells; host or cells: CHO-K1
The experiment in a line: Histamine H1 radioligand binding ([3H]Pyrilamine). As to conditions: read-out: Histamine H1 Binding (1 μM), percent inhibition of specific binding; compound at 1 μM; 1.2 nM [3H]Pyrilamine. The method in brief: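 Results expressed as percent inhibition of specific [3H]pyrilamine binding, counted on filters after washing. Receptor source: CHO-K1 cells expressing recombinant human H1, in modified Tris-HCl buffer (50 mM, pH 7.4; 2 mM MgCl2, 100 mM NaCl, 250 mM sucrose). 1 μM pyrilamine defined non-specific binding.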

For test [3], the target named is T3, human recombinant adrenergic α2A receptor (Homo sapiens, UniProt P08913).
T3 construct: expressed in transfected cells; host or cells: insect Sf9 cells
T3 sequence (P08913 1-465): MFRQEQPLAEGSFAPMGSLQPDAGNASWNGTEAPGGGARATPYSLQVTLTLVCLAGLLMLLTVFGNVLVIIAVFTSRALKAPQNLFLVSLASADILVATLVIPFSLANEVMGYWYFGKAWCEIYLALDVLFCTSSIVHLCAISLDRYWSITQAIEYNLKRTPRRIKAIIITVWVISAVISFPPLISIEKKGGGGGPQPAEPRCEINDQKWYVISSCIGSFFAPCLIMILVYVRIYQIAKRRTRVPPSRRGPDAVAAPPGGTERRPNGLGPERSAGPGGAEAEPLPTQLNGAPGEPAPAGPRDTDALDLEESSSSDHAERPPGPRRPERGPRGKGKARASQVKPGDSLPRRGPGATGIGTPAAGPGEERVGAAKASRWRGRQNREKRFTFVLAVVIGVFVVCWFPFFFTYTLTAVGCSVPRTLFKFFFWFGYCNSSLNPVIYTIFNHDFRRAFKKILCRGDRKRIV
In words: Adrenergic α2A radioligand binding ([3H]MK-912). The note with it: read-out: Adrenergic (0.1 μM) a2A, percent inhibition of specific binding; compound at 0.1 μM; 1 nM [3H]MK-912. The method, then: To evaluate in radioligand binding assays the activity of compounds of the invention, human recombinant adrenergic α2A receptor expressed in insect Sf9 cells (Uhlen, S. et al, J. Pharmacol. Exp. Ther. 271:1558, 1994) in a modified Tris-HCl buffer (50 mM Tris-HCl, pH 7.4, 12.5 mM MgCl2, 2 mM EDTA) was used. Compounds of invention were incubated with 1 nM [^3H]MK-912 for 60 min at 25° C. MK-912 is (2S-trans)-1,3,4,5′,6,6′,7,12b-octahydro-1′,3′-dimethyl-spiro[2H-benzofuro[2,3-a]quinolizine-2,4′(1′H)-pyrimidin]-2′(3′H)-one hydrochloride Non-specific binding was estimated in the presence of 10 μM WB-4101 (2-(2,6-Dimethoxyphenoxyethyl)aminomethyl-1,4-benzodioxane hydrochloride). Receptor proteins were filtered and washed, the filters were then counted to determine [^3H]MK-912 specifically bound. […] Compounds of the invention were tested in this biochemical assay and percent inhibition of specific binding was determined.

For test [4], the target named is T4, human recombinant serotonin (5-Hydroxytryptamine) 5-HT2A receptor (Homo sapiens, UniProt P28223).
T4 construct: expressed in transfected cells; host or cells: CHO-K1
T4 sequence (P28223 whole entry): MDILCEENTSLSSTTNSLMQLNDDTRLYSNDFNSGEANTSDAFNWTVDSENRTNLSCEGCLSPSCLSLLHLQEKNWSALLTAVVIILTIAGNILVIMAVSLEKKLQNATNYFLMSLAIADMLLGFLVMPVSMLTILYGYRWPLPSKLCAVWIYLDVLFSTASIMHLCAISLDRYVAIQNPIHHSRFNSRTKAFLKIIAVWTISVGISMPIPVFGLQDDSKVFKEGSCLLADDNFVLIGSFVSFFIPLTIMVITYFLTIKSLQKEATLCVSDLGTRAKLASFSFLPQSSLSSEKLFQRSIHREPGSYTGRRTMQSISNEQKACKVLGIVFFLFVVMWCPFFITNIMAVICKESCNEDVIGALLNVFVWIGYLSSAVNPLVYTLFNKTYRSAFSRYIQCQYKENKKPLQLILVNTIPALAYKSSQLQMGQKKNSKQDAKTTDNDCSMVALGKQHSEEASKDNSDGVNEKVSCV
The experiment in a line: Serotonin 5-HT2A radioligand binding ([3H]Ketanserin). The note with it: compound at 0.1 μM; read-out: Inhibition of ligand binding, Serotonin 5-HT2A (percent inhibition of specific binding). The method, then: Compounds of the invention were incubated with 0.5 nM [^3H]Ketanserin for 60 min at 25° C. Non-specific binding was estimated in the presence of 1 μM Mianserin. Receptor proteins were filtered and washed, the filters were then counted to determine [^3H]Ketanserin specifically bound.

Test [5] deals with T5, human recombinant dopamine D2L receptor (Homo sapiens, UniProt P14416).
T5 construct: expressed in transfected cells; host or cells: CHO
T5 sequence (P14416 whole entry): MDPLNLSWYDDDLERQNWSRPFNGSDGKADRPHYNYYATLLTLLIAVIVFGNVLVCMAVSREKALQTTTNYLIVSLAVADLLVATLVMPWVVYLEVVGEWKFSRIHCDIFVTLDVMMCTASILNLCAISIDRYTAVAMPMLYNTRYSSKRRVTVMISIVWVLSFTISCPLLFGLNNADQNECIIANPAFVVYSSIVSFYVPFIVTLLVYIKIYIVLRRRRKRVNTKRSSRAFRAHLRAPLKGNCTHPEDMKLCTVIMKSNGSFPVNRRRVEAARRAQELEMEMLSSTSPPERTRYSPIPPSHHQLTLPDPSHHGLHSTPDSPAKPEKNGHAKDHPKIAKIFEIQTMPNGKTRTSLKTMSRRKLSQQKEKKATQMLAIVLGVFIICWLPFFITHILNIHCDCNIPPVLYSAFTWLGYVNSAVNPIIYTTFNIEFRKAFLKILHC
In words: Dopamine D2L radioligand binding ([3H]Spiperone). As to conditions: 0.16 nM [3H]Spiperone; for inhibition at 1 µM: read-out: Dopamine D2L (1 μM), percent inhibition of specific binding, compound at 1 μM. The method, then: Non-specific binding was estimated in the presence of 10 μM Haloperidol. Receptor proteins were filtered and washed, the filters were then counted to determine [^3H]Spiperone specifically bound.

Test [6] concerns the target T6, human recombinant adrenergic α2B receptor (Homo sapiens, UniProt P18089).
T6 construct: expressed in transfected cells; host or cells: CHO-K1
T6 sequence (P18089 1-450): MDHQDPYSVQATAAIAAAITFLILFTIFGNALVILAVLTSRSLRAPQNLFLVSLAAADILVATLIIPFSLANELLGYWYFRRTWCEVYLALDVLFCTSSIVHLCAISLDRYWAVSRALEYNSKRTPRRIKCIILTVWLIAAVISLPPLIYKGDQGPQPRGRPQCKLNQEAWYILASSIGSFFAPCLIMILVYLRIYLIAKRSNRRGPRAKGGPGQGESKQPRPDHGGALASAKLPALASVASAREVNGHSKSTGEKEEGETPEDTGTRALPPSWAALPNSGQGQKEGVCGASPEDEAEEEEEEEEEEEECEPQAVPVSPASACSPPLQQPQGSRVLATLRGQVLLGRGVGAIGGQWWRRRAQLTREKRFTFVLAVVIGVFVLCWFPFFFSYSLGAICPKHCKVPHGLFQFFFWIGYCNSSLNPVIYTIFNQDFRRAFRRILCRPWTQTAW
In words: Adrenergic α2B radioligand binding ([3H]Rauwolscine). The note with it: read-out: Adrenergic (0.1 μM) a2B, percent inhibition of specific binding; compound at 0.1 μM; 2.5 nM [3H]Rauwolscine.
Experimental: To evaluate in radioligand binding assays the activity of compounds of the invention, human recombinant adrenergic α2B receptor expressed in Chinese hamster ovary (CHO) K1 cells (Uhlen, S. et al, Eur. J. Pharmacol. 343(1):93, 1998) in a modified Tris-HCl buffer (50 mM Tris-HCl, pH 7.4, 12.5 mM MgCl2, 1 mM EDTA, 0.2% BSA) was used. Compounds of the invention were incubated with 2.5 nM [^3H]Rauwolscine for 60 min at 25° C. Non-specific binding was estimated in the presence of 10 μM Prazosin. Receptor proteins were filtered and washed, the filters were then counted to determine [^3H]Rauwolscine specifically bound. […] Compounds of the invention were tested in this biochemical assay and percent inhibition of specific binding was determined.

T1 sequence (P50406 whole entry): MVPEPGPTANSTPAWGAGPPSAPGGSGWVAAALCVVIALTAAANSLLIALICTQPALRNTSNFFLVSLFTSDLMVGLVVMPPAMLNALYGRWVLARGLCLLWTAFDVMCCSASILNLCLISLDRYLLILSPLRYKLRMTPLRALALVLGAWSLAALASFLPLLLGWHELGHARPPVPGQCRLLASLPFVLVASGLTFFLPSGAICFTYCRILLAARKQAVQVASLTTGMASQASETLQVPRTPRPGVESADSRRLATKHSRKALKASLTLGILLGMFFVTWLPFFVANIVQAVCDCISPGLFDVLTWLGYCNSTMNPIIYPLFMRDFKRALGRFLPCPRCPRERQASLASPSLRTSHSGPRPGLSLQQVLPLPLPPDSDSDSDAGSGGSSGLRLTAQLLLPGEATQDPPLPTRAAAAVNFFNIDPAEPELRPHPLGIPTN
T2 sequence (P35367 whole entry): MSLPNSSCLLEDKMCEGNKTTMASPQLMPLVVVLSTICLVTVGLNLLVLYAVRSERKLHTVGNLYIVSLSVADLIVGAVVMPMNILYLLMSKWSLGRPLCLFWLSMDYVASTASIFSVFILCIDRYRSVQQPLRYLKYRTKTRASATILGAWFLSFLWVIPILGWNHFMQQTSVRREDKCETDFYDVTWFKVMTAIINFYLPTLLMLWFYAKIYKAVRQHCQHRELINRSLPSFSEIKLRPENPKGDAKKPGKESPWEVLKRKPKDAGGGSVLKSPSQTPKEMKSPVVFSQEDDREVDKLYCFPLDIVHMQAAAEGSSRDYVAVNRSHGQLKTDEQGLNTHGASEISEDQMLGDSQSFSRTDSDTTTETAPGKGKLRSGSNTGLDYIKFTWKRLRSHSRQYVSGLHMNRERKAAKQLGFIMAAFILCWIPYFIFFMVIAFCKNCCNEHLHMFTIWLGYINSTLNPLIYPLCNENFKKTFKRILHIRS

On to `Cc1ccc2c(c1)c1c(n2-c2ccccc2-c2ccc3c(ccn3C)c2)CCN(C)C1` [Compound No. 85, 2,8-dimethyl-5-(2-(1-methyl-1H-indol-5-yl)phenyl)-2,3,4,5-tetrahydro-1H-pyrido[4,3-b]indole], for which the values for the inhibition at 0.1 µM in test [1], in test [3] and in test [4] were 49%, 94% and 49%, respectively. Also, the inhibition at 1 µM was found to be 8% in test [2] and 11% in test [5].

For `Cc1ccc2c(c1)c1c(n2-c2cscc2-c2ccc(C)s2)CCN(C)C1` [Compound No. 79], the inhibition at 0.1 µM came to 106% in test [6], 50% in test [1], 92% in test [3] and 77% in test [4]. Further, the inhibition at 1 µM in test [2] worked out at 61%; in test [5], 30%.

Regarding `CNC(=O)c1cccc(-c2ccc(-n3c4c(c5cc(C)ccc53)CN(C)CC4)nc2)c1` [Compound No. 143, 3-(6-(2,8-dimethyl-3,4-dihydro-1H-pyrido[4,3-b]indol-5(2H)-yl)pyridin-3-yl)-N-methylbenzamide], the inhibition at 0.1 µM in test [6] was 77%; in test [1] it was -8%; in test [3], 44%; in test [4] it was 55%. Besides, the inhibition at 1 µM in test [2] was 8%; in test [5] it was 19%.

For `COc1ccc(-c2cscc2-n2c3c(c4cc(C)ccc42)CN(C)CC3)cc1` [Compound 37], the inhibition at 0.1 µM stood at 24% in test [1], 94% in test [3] and 59% in test [4]. Further, the figures for the inhibition at 1 µM in test [2] and in test [5] were 6% and 18%, respectively.

Turning to `Cc1csc(-c2cscc2-n2c3c(c4cc(C)ccc42)CN(C)CC3)c1` [Compound 50], the inhibition at 0.1 µM in test [1] is 36%; in test [3] it was 93%; in test [4] it was 86%. The inhibition at 1 µM came out at 54% in test [2] and 36% in test [5].

`Cc1ccc2c(c1)c1c(n2-c2cscc2-c2ccc(S(C)(=O)=O)cc2)CCN(C)C1` [Compound No. 76]: the inhibition at 0.1 µM in test [1] was 14%; in test [3] it was 90%; in test [4], 30%. Further, the inhibition at 1 µM in test [2] worked out at 19%; in test [5], 11%.

`Cc1ccc2c(c1)c1c(n2-c2cscc2-c2ccc3cnccc3c2)CCN(C)C1` [Compound No. 68]: the inhibition at 0.1 µM worked out at 18% in test [1], 90% in test [3] and 35% in test [4]. Besides, the inhibition at 1 µM came out at 30% in test [2] and 9% in test [5].

With `Cc1ccc2c(c1)c1c(n2-c2cscc2-c2ccc3c(ccn3C)c2)CCN(C)C1` [Compound 33], the inhibition at 0.1 µM came out at 60% in test [1], 100% in test [3] and 39% in test [4]. In addition, the figures for the inhibition at 1 µM in test [2] and in test [5] were -7% and 19%, respectively.

On to `Cc1ccc2c(c1)c1c(n2-c2cccc(-c3ccc(F)cc3)c2)CCN(C)C1` [Compound 61, 5-(4′-fluorobiphenyl-3-yl)-2,8-dimethyl-2,3,4,5-tetrahydro-1H-pyrido[4,3-b]indole], for which the inhibition at 0.1 µM in test [1] was found to be 18%; in test [4], 102%. The inhibition at 1 µM in test [2] came to 42%; in test [5], 36%.

In the case of `Cc1ccc2c(c1)c1c(n2-c2ccc(-c3c(C)noc3C)cn2)CCN(C)C1` [Compound No. 137, 4-(6-(2,8-dimethyl-3,4-dihydro-1H-pyrido[4,3-b]indol-5(2H)-yl)pyridin-3-yl)-3,5-dimethylisoxazole], the inhibition at 0.1 µM in test [1] is 2%; in test [4], 62%. For the same compound, the inhibition at 1 µM in test [2] was determined as 3%; in test [5] it was 6%.

In the case of `Cc1ccc2c(c1)c1c(n2-c2ccc(-c3ccc(C)nc3)cn2)CCN(C)C1` [Compound No. 156, 2,8-dimethyl-5-(6′-methyl-3,3′-bipyridin-6-yl)-2,3,4,5-tetrahydro-1H-pyrido[4,3-b]indole], the inhibition at 0.1 µM is -5% in test [1]; 90% in test [4]; -7% in test [5] (read-out: Dopamine D2L (0.1 μM), percent inhibition of specific binding, compound at 0.1 μM). For the same compound, the inhibition at 1 µM in test [2] was 12%.

In the case of `Cc1ccc2c(c1)c1c(n2-c2cscc2-c2cnc(N(C)C)nc2)CCN(C)C1` [Compound 40], the values for the inhibition at 0.1 µM in test [1] and in test [4] were 19% and 31%, respectively. For the same compound, the inhibition at 1 µM in test [2] stood at 15%; in test [5], 7%.

As to `Cc1ccc2c(c1)c1c(n2-c2cccc(-c3ccc4[nH]cnc4c3)c2)CCN(C)C1` [Compound 54, 5-(3-(1H-benzo[d]imidazol-5-yl)phenyl)-2,8-dimethyl-2,3,4,5-tetrahydro-1H-pyrido[4,3-b]indole], the inhibition at 0.1 µM in test [1] came to 25%; in test [4], 92%. The inhibition at 1 µM is 40% in test [2] and 22% in test [5].
